Measurements: patent US20210002231A1 (Centre National de la Recherche Scientifique, priority 2018, published 2021)
Like-named read-outs stand apart in the source and are kept apart here. Residues, ends and D or L forms follow the SMILES beside them.

Legend:
[1] = target: T1, human KOPr (Homo sapiens, UniProt P41145); experiment: biochemical; type: binding; details: [3H]-diprenorphine
T1 construct: expressed in transfected cells; HEK293-Glo20F cells (cAMP)

[2] = target: T2, human NOPr (Homo sapiens, UniProt P41146); experiment: Radioligand competition binding with [3H]-nociceptin
T2 construct: expressed in transfected cells
T2 sequence (P41146 whole entry): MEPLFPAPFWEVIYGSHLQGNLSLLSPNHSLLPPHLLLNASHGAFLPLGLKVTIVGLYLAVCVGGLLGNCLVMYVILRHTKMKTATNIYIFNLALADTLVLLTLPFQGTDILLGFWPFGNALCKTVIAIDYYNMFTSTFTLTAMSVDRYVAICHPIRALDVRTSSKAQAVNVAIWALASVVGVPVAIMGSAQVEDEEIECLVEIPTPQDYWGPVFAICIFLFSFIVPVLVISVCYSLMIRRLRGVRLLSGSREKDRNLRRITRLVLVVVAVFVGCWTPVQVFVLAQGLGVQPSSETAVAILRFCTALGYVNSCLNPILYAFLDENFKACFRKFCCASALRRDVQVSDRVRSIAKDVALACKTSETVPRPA

[3] = target: T3, human DOPr (Homo sapiens, UniProt P41143); experiment: Glo-sensor cAMP assay; type: cell-based
T3 construct: expressed in transfected cells; HEK293-Glo20F cells (cAMP)
T3 sequence (P41143 whole entry): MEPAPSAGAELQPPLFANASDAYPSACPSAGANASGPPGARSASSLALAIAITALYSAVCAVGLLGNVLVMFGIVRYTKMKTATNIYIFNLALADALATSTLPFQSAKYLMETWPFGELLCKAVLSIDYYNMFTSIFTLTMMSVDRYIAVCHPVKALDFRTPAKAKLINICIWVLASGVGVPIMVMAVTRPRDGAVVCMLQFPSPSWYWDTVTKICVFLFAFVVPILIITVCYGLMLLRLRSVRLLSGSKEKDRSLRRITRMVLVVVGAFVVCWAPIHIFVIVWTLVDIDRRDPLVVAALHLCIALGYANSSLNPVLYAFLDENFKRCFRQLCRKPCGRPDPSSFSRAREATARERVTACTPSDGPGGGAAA
Procedure: Stimulation by endogenous RF-amide peptides or test compounds for [^35S]-GTPγS binding to membranes from CHO cells expressing human NPFF1R or NPFF2R, were examined as reported. 1.6. Glo-Sensor cAMP Assay cAMP accumulation assay was essentially done as described with the following modifications: HEK293 cells stably expressing cAMP Glosensor-20F were used, with or without additional stable expression of each individual opioid receptor or NPFF1R. The cAMP responses were measured in presence of D-luciferin (1 mM). All peptides and test compounds were incubated in the presence of IBMX for 15 min before inducing cAMP production by forskolin. IBMX and forskolin concentrations were optimized for each receptor cell line: NPFF1R responses were recorded in presence of 0.1 mM IBMX and 0.4 μM forskolin, NPFF2R responses with 0.5 mM IBMX and 0.3 μM forskolin, MOPr responses with 0.5 mM IBMX and 0.125 μM forskolin, DOPr responses with 0.1 mM IBMX and 0.125 μM forskolin; KOPr and NOPr with 0.5 mM IBMX and 1.5 μM forskolin.

[4] = target: T2, human NOPr; experiment: Glo-sensor cAMP assay; type: cell-based
Procedure: (§1) Stimulation by endogenous RF-amide peptides or test compounds for [^35S]-GTPγS binding to membranes from CHO cells expressing human NPFF1R or NPFF2R, were examined as reported. 1.6. Glo-Sensor cAMP Assay cAMP accumulation assay was essentially done as described with the following modifications: HEK293 cells stably expressing cAMP Glosensor-20F were used, with or without additional stable expression of each individual opioid receptor or NPFF1R. The cAMP responses were measured in presence of D-luciferin (1 mM).

[5] = target: T4, GPR54 (Homo sapiens, UniProt Q969F8); experiment: Radioligand competition binding with [125I]-Kp-10
T4 construct: expressed in transfected cells; host or cells: CHO cells, membranes
T4 sequence (Q969F8 whole entry): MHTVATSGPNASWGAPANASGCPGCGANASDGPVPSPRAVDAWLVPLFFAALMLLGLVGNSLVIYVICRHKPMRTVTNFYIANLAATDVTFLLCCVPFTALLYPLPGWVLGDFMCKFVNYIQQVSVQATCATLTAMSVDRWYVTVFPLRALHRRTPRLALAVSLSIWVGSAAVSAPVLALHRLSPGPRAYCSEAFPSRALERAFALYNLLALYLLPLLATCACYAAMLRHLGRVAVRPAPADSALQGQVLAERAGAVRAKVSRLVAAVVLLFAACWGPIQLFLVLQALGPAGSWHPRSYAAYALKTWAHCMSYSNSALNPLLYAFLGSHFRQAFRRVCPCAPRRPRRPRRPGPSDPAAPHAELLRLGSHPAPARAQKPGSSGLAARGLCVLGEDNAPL

[6] = test system: C57BL/6N mice; experiment: Tail immersion test after acute sc. administration; type: in vivo
Procedure: Animal experiments were performed on adult male C57BL/6N male mice (25-30 g weight; Janvier labs, France). Animals were housed in groups of three to five per cage and kept under a 12 h/12 h light/dark cycle at 21±1° C. with ad libitum access to food and water. Experiments were performed during the light-on phase of the cycle. Mice were habituated to the testing room and equipment before starting behavioral experiments. Control and treated group assignment as well as pain response measurements were performed in a blinded manner. Every animal was used only once. 1.11. Drug administration All drugs were dissolved in physiological saline (0.9%) and administered subcutaneously (sc.) at 10 mL/kg (volume/body weight). […] Assessment of thermal nociception The nociceptive sensitivity to thermal stimulation was determined in mice using the warm-water tail immersion tests as previously described [12; 49]. In the tail immersion test, C57BN/6N mice were restrained in a grid pocket and their tail was immersed in a thermostated water bath. […] For analgesic tolerance evaluation, nociceptive latencies were measured on day 1 and 8 according to the acute effect protocol. For the assessment of hyperalgesia, basal nociceptive latencies were measured every day, 30 min before drug or saline injection. Responses are expressed as latency times (in sec) of tail withdrawal from the hot water.

[7] = test system: C57BL/6N mice; experiment: Respiratory depression by whole body plethysmography; type: in vivo; details: acute sc.; KGOP01 1.8, KGFF03 1.2, KGFF09 7.4 μmol/kg; 100 min
Procedure: Ventilatory parameters were recorded in conscious C57BL/6N mice by whole body barometric plethysmography (Emka Technologies, Paris, France). Mice were acclimatized with the plethysmograph chamber for 30 min until a stable baseline was obtained. Then, the animal was gently removed from the chamber for sc. injection of the tested drug at TO and replaced in the chamber for the remaining measurements. Respiratory frequency (f) was recorded for 100 min and used as the index of respiratory depression.

[8] = target: NPFF2R (Homo sapiens, UniProt Q9Y5X5); experiment: [35S]-GTPγS binding assay; type: biochemical; design: expressed in transfected cells;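 on Emax: Emax relative to NPFF as 100%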
Chain of NPFF2R (Q9Y5X5 whole entry): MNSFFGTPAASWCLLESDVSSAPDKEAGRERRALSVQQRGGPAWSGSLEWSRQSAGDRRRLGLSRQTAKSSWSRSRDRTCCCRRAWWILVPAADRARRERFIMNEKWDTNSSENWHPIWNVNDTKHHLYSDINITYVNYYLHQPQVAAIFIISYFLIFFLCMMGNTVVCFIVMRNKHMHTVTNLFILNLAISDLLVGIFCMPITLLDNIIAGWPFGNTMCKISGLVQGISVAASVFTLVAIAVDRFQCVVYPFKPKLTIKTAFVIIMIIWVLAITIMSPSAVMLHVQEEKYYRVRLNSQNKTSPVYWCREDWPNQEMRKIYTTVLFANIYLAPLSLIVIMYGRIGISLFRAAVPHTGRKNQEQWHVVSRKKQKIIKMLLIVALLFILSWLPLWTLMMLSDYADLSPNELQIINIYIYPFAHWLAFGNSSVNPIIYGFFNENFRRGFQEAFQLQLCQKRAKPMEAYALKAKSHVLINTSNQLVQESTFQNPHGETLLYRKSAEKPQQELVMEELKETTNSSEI
Procedure: as §1

[9] = target: human NPFF1R (Homo sapiens, UniProt Q9GZQ6); experiment: [35S]-GTPγS binding assay; type: biochemical; design: expressed in transfected cells; details: for Emax: relative to RFRP3
Chain of human NPFF1R (Q9GZQ6 whole entry): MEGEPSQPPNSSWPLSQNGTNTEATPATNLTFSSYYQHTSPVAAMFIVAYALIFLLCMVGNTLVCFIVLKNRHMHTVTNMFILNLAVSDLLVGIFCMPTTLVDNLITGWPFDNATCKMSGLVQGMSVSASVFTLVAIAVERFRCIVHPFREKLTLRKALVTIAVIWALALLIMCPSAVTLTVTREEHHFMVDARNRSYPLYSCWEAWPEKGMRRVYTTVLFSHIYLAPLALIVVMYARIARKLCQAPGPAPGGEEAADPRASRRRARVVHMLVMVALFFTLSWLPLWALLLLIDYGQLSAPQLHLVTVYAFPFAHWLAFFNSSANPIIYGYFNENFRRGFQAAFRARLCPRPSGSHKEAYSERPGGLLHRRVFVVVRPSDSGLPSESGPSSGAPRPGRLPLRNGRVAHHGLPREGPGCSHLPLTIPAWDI
Procedure: as §1

[10] = target: T5, human MOPr (Homo sapiens, UniProt P35372); experiment: Radioligand competition binding with [3H]-diprenorphine; design: expressed in transfected cells; HEK293-Glo20F cells (cAMP)
T5 sequence (P35372 whole entry): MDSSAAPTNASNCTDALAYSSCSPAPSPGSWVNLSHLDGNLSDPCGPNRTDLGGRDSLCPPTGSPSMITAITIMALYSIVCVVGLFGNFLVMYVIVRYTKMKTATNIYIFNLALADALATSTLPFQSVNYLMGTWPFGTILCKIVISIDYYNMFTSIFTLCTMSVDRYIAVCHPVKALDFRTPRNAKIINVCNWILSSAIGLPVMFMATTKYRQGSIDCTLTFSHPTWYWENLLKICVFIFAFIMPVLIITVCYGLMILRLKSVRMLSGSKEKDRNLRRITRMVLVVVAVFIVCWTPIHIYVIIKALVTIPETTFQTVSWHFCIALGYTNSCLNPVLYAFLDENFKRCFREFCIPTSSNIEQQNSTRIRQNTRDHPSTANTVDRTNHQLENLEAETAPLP

[11] = target: T5, human MOPr; experiment: cell-based; type: cell-based; design: expressed in transfected cells; HEK293-Glo20F cells (cAMP); details: for MOPr-induced G protein activation: in words; for Emax: read-out: MOPr (cAMP) Emax
Method in brief: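 GTPγS binding used membranes of CHO cells expressing NPFF1R or NPFF2R, stimulated by RF-amide peptides or test compounds. cAMP was measured in HEK293 cells stably carrying Glosensor-20F, with or without stable expression of an opioid receptor or NPFF1R, in the presence of 1 mM D-luciferin.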

[12] = test system: C57BL/6N mice; experiment: Naltrexone-precipitated withdrawal syndrome; type: in vivo; details: twice daily sc. for 7 days, KGFF09 7.4 μmol/kg; in comparison to the other compounds
Procedure: On day 7, two hours after the last drug injection, the withdrawal syndrome was precipitated by administration of naltrexone (5 mg/kg, sc.) and evaluated over 30 min. Jumping, paw tremors and wet dog shakes were recorded as number of events occurring during the total test time. Diarrhea was checked for 30 min with one point given for any signs of it during each 5 min period (maximum score: 6). Body weight was measured immediately before and after each 30 min test session, and percentage of body weight lost during the test was calculated. For each mouse, a global opiate withdrawal score was also calculated by summing the values obtained for each sign. For this purpose one point was assigned to every 3 jumps and 5 paw tremors, respectively, whereas all other signs were given the absolute values recorded during the test.

[13] = Table 3a, HEK293-Glo20F-hMOPr cells, read-out: MOPr (cAMP) EC50
[14] = [125I]-Kp-10, read-out: Ki ± SEM GPR54
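Wherever MOPr (cAMP) Emax is given: Emax relative to DAMGO as 100%.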

T1 sequence (P41145 whole entry): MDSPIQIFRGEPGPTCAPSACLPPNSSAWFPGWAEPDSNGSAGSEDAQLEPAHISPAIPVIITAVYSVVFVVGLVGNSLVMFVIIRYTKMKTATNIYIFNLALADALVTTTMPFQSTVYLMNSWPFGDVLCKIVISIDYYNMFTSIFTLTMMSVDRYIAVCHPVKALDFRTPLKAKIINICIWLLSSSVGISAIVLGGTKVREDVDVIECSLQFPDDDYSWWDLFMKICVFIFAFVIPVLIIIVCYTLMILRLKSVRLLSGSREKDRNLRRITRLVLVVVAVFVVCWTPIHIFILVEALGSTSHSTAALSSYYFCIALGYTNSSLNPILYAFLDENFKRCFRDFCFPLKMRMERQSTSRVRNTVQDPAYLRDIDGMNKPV

Compound: Cc1cc(O)cc(C)c1C[C@H](N)C(=O)N[C@H](CCCNC(=N)N)C(=O)N[C@H]1Cc2ccccc2CN(CCC(=O)N[C@@H](CCCNC(=N)N)C(=O)N[C@@H](Cc2ccccc2)C(N)=O)C1=O [KGFF03, H-Dmt-D-Arg-Aba-β-Ala-Arg-Phe-NH2] (HELM PEPTIDE1{[Cc1cc(O)cc(C)c1C[C@H](N)C(=O)[*:2]].[dR].[O=C1[C@@H](N[*:1])Cc2ccccc2CN1CCC(=O)[*:2]].R.F.[am]}$$$$V2.0)
- Ki [1]: 108 ± 28 nM
- Ki [2]: 289 ± 3 nM
- EC50 [3]: 0.34 nM
- Emax [3]: 89 ± 6%
- Emax [4]: 15 ± 2%
- Kb [4]: 5010 nM
- Ki [5]: 4370 nM
- potency in inducing antinociception compared to KGOP01 [6]: equipotent
- respiratory depression (respiratory frequency) compared to saline [7]: did not
- Emax [8]: 111 ± 17%
- Emax [9]: 88 ± 7%
- Ki [10]: 0.24 ± 0.03 nM
- EC50 [11, 13]: 12 ± 2 nM
- MOPr-induced G protein activation [11]: highly potent and fully efficacious
- Emax [11]: 92 ± 1%

Compound: Cc1cc(O)cc(C)c1C[C@H](N)C(=O)N[C@H](CCCNC(=N)N)C(=O)N[C@H]1Cc2ccccc2CN(CCC(N)=O)C1=O [KGOP01, reference compound]
- Ki [1]: 37.3 ± 9.6 nM
- Ki [2]: > 10000 nM
- EC50 [3]: 0.16 ± 0.01 nM
- Emax [3]: 91 ± 2%
- Ki [5, 14]: > 10000 nM
- respiratory depression (respiratory frequency) compared to saline [7]: significant respiratory depression
- EC50 ([8]; membranes from CHO-hNPFF2R cells, read-out: NPFF2R (GTPγS) EC50): > 10000 nM
- EC50 ([9]; membranes from CHO-hNPFF1R cells, read-out: NPFF1R (GTPγS) EC50): > 10000 nM
- Ki [10]: 0.12 ± 0.02 nM
- EC50 ([11]; MOPr (cAMP) EC50): 0.204 ± 0.05 nM
- Emax [11]: 89 ± 2%

Compound: Cc1cc(O)cc(C)c1C[C@H](N)C(=O)N[C@H](CCCNC(=N)N)C(=O)N[C@H]1Cc2ccccc2CN(CCC(=O)N[C@@H](CCCN2CCC(Cc3ccccc3)CC2)C(=O)N[C@@H](Cc2ccccc2)C(N)=O)C1=O [KGFF09, H-Dmt-D-Arg-Aba-β-Ala-Bpa-Phe-NH2]
- Ki [2]: 209 ± 2 nM
- EC50 [3]: 0.78 nM
- Emax [3]: 90 ± 3%
- EC50 [4]: > 10000 nM
- Emax [4]: 7 ± 3%
- Kb ([4]; read-out: pA2, antagonist activity at the NOPr (converted)): 1150 nM
- Ki [5, 14]: 2000 nM
- potency in inducing antinociception compared to KGOP01 [6]: 4.5 fold less potent
- global opiate withdrawal score, reduced to [12]: circa 50%
- respiratory depression (respiratory frequency) compared to saline [7]: did not
- Emax [8]: 38 ± 14%
- Emax [9]: 10 ± 2%
- Ki [10]: 2.43 ± 0.18 nM
- EC50 ([11]; Table 3B, read-out: MOPr (cAMP) EC50): 18.2 ± 6.1 nM
- EC50 [11, 13]: 18.2 ± 6.1 nM
- MOPr-induced G protein activation [11]: highly potent and fully efficacious
- Emax [11]: 85 ± 2%
